Measured values taken from patent publication EP4818172A1, “ASCORBIC ACID DERIVATIVES AND COSMETIC CONTAINING SAME” (Seiwa Kasei Co., Ltd., priority 2023, dated 2025).

What was measured:
[1] = Stability test -1: residual rate of 1% aqueous solutions at pH 3 to 9 on storage; type: physicochemical; conditions: 1% aqueous solution
[2] = Stability test -1: odor and coloration scored by 10 panelists; type: physicochemical; conditions: Test Example 1, aqueous solution, total score of 10 panelists
Procedure: (§1) For each of the samples of Synthesis Examples 1 to 6, 1% aqueous solutions were adjusted to pH 3, 5, 7, 8, and 9 with a dilute potassium hydroxide aqueous solution, and then placed in 50 mL screw tubes and • 2: Color changes compared to immediately after preparation. • 1: Strongly colored compared to immediately after preparation. Based on the results of the above evaluation, the following classification was made: • ○: Total score of 10 panelists is 25 or more • △: Total score of 10 panelists is 16-24 • ×: The total score of 10 panelists is 15 or less [Table 10]

[3] = tested on: Normal human dermal fibroblasts; assay: Collagen production promoting effect (ELISA of free collagen in supernatant); type: cell-based; conditions: sample at 10 mM or less, cultured 48 hours, % of control group (100%), N=3
Procedure: Normal human dermal fibroblasts were prepared in D-MEM containing 5% (v/v) fetal bovine serum to a cell density of 2.5 × 10^4 cell s /well, and then pre-incubated for 24 hours on a 96-well plate. After removing the medium, samples prepared to a predetermined concentration in D-MEM containing 5% (v/v) fetal bovine serum were added to each well and cultured for 48 hours. After the culture was completed, the amount of free collagen in the supernatant was quantified by ELISA. Measurements were performed in triplicate (N=3).
The amount of collagen produced when the sample was measured at a concentration of 10 mM or less was compared with that of the control group, and the results (% values when the control group was set to 100%) are shown in Table 17 based on the following criteria. • <100%: ± • 100-140%: + • 140%<: ++ [Table 17]

[4] = tested on: Normal human dermal fibroblasts (NHDF); assay: Hyaluronic acid production promoting effect (ELISA of supernatant); type: cell-based; conditions: sample at 10 mM or less in serum-free D-MEM, cultured 48 hours, % of control group (100%), N=3
Procedure: Normal human dermal fibroblasts (NHDF) were prepared in D-MEM containing 5% (v/v) fetal bovine serum to a cell density of 2.5 × 10^4 cells/well, and then pre-incubated on a 96-well plate for 24 hours. After removing the medium, samples prepared in serum-free D-MEM were added to each well and cultured for 48 hours. After the culture was completed, the amount of hyaluronic acid in the supernatant was quantified by ELISA. Measurements were performed in triplicate (N=3).
The amount of hyaluronic acid produced when the sample was measured at a concentration of 10 mM or less was compared with that of the control group, and the results (% values when the control group is set to 100%) are shown in Tables 18 to 20 based on the following criteria. • <100%: ± • 100-120%: + • 120%<: ++ [Table 18]

[5] = Stability test -2: residual rate in cream of pH 7 or 9 stored at 50°C; type: physicochemical; conditions: cream with 4.0 W/W% derivative
Procedure: (§2) For each of the samples of Synthesis Examples 9 to 32, (a) and (b) shown in Table 12 were each heated and mixed. After cooling, (c) shown in Table 12 was added to prepare a cream with a pH of 7 or 9. The sample was stored at 50°C for 4 weeks, and the residual rate was determined in the same manner as in Test Example 1 and evaluated according to the criteria described below. The odor and coloration were also evaluated according to the same method and criteria as in Test Example 1. The results regarding the residual rate are shown in Tables 13 and 14, and the results regarding the odor and coloration are shown in Tables 15 and 16.
• ⊚: 95% or more • ○: 85% or more, less than 95% • ×: Less than 85% [Table 12]

[6] = Stability test -2: odor and coloration of cream stored at 50°C; type: physicochemical; conditions: Test Example 2, cream stored at 50°C, total score of 10 panelists
Procedure: as §1, §2

SMILES | Residual Rate After 2 weeks ([1]; pH3, stored at 50°C) | Residual Rate After 4 weeks ([1]; pH3, stored at 50°C) | Residual Rate After 2 weeks ([1]; pH5, stored at 50°C) | Residual Rate After 4 weeks ([1]; pH5, stored at 50°C) | Residual Rate After 2 weeks ([1]; pH7, stored at 50°C) | Residual Rate After 4 weeks ([1]; pH7, stored at 50°C) | Residual Rate After 2 weeks ([1]; pH8, stored at 50°C) | Residual Rate After 4 weeks ([1]; pH8, stored at 50°C) | Residual Rate After 2 weeks ([1]; pH9, stored at 50°C) | Residual Rate After 4 weeks ([1]; pH9, stored at 50°C) | Collagen production-promoting effect [3] | Hyaluronic acid production-promoting effect [4] | Residual Rate After 2 weeks ([5]; pH7, stored at 50°C) | Residual Rate After 4 weeks ([5]; pH7, stored at 50°C) | Residual Rate After 2 weeks ([5]; pH9, stored at 50°C) | Residual Rate After 4 weeks ([5]; pH9, stored at 50°C) | Coloration After 2 weeks [6] | Odor After 2 weeks [6] | Coloration After 4 weeks [6] | Odor After 4 weeks [6] | other results
O=C1OC(C(O)CO)C2=C1OC(CO)CO2 (stereo not shown) [synthesis example 5, 2,3-O-(1-hydroxymethyl-1,2-ethanediyl) ascorbic acid] | ⊚ | ⊚ | ⊚ | ⊚ | ○ | Δ | ○ | Δ | ○ | Δ | + (100-140%) | + (100-120%) |  |  |  |  |  |  |  |  | Coloration After 2 weeks [2]: ○ (Total score of 10 panelists is 25 or more); Odor After 2 weeks [2]: ○ (Total score of 10 panelists is 25 or more); Coloration After 4 weeks [2]: ○ (Total score of 10 panelists is 25 or more); Odor After 4 weeks [2]: ○ (Total score of 10 panelists is 25 or more)
O=C1OC(C(O)CO)C2=C1OCC1(COC1)CO2 (stereo not shown) [synthesis example 6, 2,3-O-(3,3-dimethyleneoxetane) ascorbic acid] | ⊚ | ⊚ | ⊚ | ⊚ | ○ | ○ | ○ | Δ | ○ | Δ | ++ (140%<) | ++ (120%<) |  |  |  |  |  |  |  |  | Coloration After 2 weeks [2]: ○ (Total score of 10 panelists is 25 or more); Odor After 2 weeks [2]: ○ (Total score of 10 panelists is 25 or more); Coloration After 4 weeks [2]: ○ (Total score of 10 panelists is 25 or more); Odor After 4 weeks [2]: ○ (Total score of 10 panelists is 25 or more)
CCCC(=O)OCC(OC(=O)CCC)C1OC(=O)C2=C1OCCCO2 (stereo not shown) [synthesis example 21, 5,6-O-dibutanoyl-2,3-O-(1,3-propanediyl) ascorbic acid] |  |  |  |  |  |  |  |  |  |  | ++ (140%<) | ++ (120%<) | ⊚ (95% or more) | ⊚ (95% or more) | ⊚ (95% or more) | ⊚ (95% or more) | ○ (Total score of 10 panelists is 25 or more) | ○ (Total score of 10 panelists is 25 or more) | ○ (Total score of 10 panelists is 25 or more) | Δ | 
O=C1OC(C(O)CO)C2=C1OCCCCO2 (stereo not shown) [synthesis example 3, 2,3-O-(1,4-butanediyl) ascorbic acid] | ⊚ | ⊚ | ⊚ | ⊚ | ⊚ | ⊚ | ⊚ | ○ | ○ | Δ | + (100-140%) | + (100-120%) |  |  |  |  |  |  |  |  | Coloration After 2 weeks [2]: ○ (Total score of 10 panelists is 25 or more); Odor After 2 weeks [2]: ○ (Total score of 10 panelists is 25 or more); Coloration After 4 weeks [2]: ○ (Total score of 10 panelists is 25 or more); Odor After 4 weeks [2]: ○ (Total score of 10 panelists is 25 or more)
CCCCCCCCCCCCCCCC(=O)OCC(OC(=O)CCCCCCCCCCCCCCC)C1OC(=O)C2=C1OCCCO2 (stereo not shown) [Synthesis Example 27, 5,6-O-dipalmitoyl-2,3-O-(1,3-propanediyl) ascorbic acid] |  |  |  |  |  |  |  |  |  |  | ++ (140%<) | ++ (120%<) | ⊚ (95% or more) | ⊚ (95% or more) | ⊚ (95% or more) | ⊚ (95% or more) | ○ (Total score of 10 panelists is 25 or more) | ○ (Total score of 10 panelists is 25 or more) | Δ | Δ | 
CC(C)CCCCCCCCCCCCCCC(=O)OCC(OC(=O)CCCCCCCCCCCCCCC(C)C)C1OC(=O)C2=C1OCCCO2 (stereo not shown) [synthesis example 29, 5,6-O-diisostearoyl-2,3-O-(1,3-propanediyl) ascorbic acid] |  |  |  |  |  |  |  |  |  |  | ++ (140%<) | + (100-120%) | ⊚ (95% or more) | ⊚ (95% or more) | ⊚ (95% or more) | ⊚ (95% or more) | ○ (Total score of 10 panelists is 25 or more) | ○ (Total score of 10 panelists is 25 or more) | ○ (Total score of 10 panelists is 25 or more) | Δ | 
CCCCCCCC(=O)OCC(OC(=O)CCCCCCC)C1OC(=O)C2=C1OCCCCO2 (stereo not shown) [synthetic example 12, 5,6-O-dioctanoyl-2,3-O-(1,4-butanediyl) ascorbic acid] |  |  |  |  |  |  |  |  |  |  | ++ (140%<) | ++ (120%<) | ⊚ (95% or more) | ⊚ (95% or more) | ⊚ (95% or more) | ⊚ (95% or more) | ○ (Total score of 10 panelists is 25 or more) | ○ (Total score of 10 panelists is 25 or more) | ○ (Total score of 10 panelists is 25 or more) | Δ | 
